Source: patent publication US10894788B2, “Inhibitors of cyclin-dependent kinases” (Kinnate Biopharma Inc., priority 2018, dated 2021)
pIC50: −log10 of the molar value.

These compounds were tested against CDK12 wt/CycK (Homo sapiens (Human), UniProt Q9NYV4) (assay: Radiometric protein kinase assay (33PanQinase Activity Assay), Assay Condition A (thiol containing conditions)). Settings: not given.
Format: biochemical
Experimental: Example 1—Assay Condition A (Thiol Containing Conditions)
Objective: The IC50 profile of test compounds was determined using three protein kinases.
Test compounds: The compounds were provided as pre-weighed powders in vials. The compounds were dissolved to 1×10^−02M by adding DMSO. 100 μl of each of the resulting stock solutions were transferred into column 2 of four 96 well “master plates”.
Prior to testing, the 1×10^−02M stock solutions in column 2 of the master plates were subjected to a serial, semi-logarithmic dilution using 100% DMSO as a solvent. […] Column 1 and 7 were filled with 100% DMSO as controls. Subsequently, 2×10 μl from each well of the serial diluted copy plates were aliquoted with a 96 channel pipettor into two identical sets of “compound dilution plates”.
In the process, 90 μl H2O were added to each well of a set of compound dilution plates. To minimize potential precipitation, the H2O was added to each plate only a few minutes before the transfer of the compound solutions into the assay plates. Each plate was shaken thoroughly, resulting in a “compound dilution plate/10% DMSO”.
For the assays, 5 μl solution from each well of the compound dilution plates/10% DMSO were transferred into the assay plates. The final volume of the assay was 50 μl. All compounds were tested at 10 final assay concentrations in the range from 1×10^−04M to 3×10^−09M, in singlicate. The final DMSO concentration in the reaction cocktails was 1% in all cases.
Recombinant protein kinases: All protein kinases were expressed in Sf9 insect cells or in E. coli as recombinant GST-fusion proteins or His-tagged proteins, either as full-length or enzymatically active fragments. All kinases were produced from human cDNAs and purified by either GSH-affinity chromatography or immobilized metal. Affinity tags were removed from a number of kinases during purification. The purity of the protein kinases was examined by SDS-PAGE/Coomassie staining, the identity was checked by mass spectroscopy.
Protein kinase assay: A radiometric protein kinase assay (^33PanQinase® Activity Assay) was used for measuring the kinase activity of the three protein kinases. All kinase assays were performed in 96-well FlashPlates™ from PerkinElmer (Boston, Mass., USA) in a 50 μl reaction volume. The reaction cocktail was pipetted in four steps in the following order: • 20 μl of assay buffer (standard buffer) • 5 μl of ATP solution (in H2O) • 5 μl of test compound (in 10% DMSO) • 20 μl enzyme/substrate mix
The following amounts of enzyme and substrate were used per well:
The reaction cocktails were incubated at 30° C. for 60 minutes. The reaction was stopped with 50 μl of 2% (v/v) H3PO4, plates were aspirated and washed two times with 200 μl 0.9% (w/v) NaCl. Incorporation of ^33Pi was determined with a microplate scintillation counter (Microbeta, Wallac). All assays were performed with a BeckmanCoulter/SAGIAN™ Core System.
Evaluation of raw data: The median value of the counts in column 1 (n=8) of each assay plate was defined as “low control”. This value reflects unspecific binding of radioactivity to the plate in the absence of a protein kinase but in the presence of the substrate. The median value of the counts in column 7 of each assay plate (n=8) was taken as the “high control”, i.e. full activity in the absence of any inhibitor. The difference between high and low control was taken as 100% activity.
As part of the data evaluation the low control value from a particular plate was subtracted from the high control value as well as from all 80 “compound values” of the corresponding plate. The residual activity (in %) for each well of a particular plate was calculated by using the following formula: Res. Activity (%)=100×[(cpm of compound−low control)/(high control−low control)]
The residual activities for each concentration and the compound IC50 values were calculated using Quattro Workflow V3.1.1 (Quattro Research GmbH, Munich, Germany).

CDK12 wt/CycK, sequence (Q9NYV4 whole entry): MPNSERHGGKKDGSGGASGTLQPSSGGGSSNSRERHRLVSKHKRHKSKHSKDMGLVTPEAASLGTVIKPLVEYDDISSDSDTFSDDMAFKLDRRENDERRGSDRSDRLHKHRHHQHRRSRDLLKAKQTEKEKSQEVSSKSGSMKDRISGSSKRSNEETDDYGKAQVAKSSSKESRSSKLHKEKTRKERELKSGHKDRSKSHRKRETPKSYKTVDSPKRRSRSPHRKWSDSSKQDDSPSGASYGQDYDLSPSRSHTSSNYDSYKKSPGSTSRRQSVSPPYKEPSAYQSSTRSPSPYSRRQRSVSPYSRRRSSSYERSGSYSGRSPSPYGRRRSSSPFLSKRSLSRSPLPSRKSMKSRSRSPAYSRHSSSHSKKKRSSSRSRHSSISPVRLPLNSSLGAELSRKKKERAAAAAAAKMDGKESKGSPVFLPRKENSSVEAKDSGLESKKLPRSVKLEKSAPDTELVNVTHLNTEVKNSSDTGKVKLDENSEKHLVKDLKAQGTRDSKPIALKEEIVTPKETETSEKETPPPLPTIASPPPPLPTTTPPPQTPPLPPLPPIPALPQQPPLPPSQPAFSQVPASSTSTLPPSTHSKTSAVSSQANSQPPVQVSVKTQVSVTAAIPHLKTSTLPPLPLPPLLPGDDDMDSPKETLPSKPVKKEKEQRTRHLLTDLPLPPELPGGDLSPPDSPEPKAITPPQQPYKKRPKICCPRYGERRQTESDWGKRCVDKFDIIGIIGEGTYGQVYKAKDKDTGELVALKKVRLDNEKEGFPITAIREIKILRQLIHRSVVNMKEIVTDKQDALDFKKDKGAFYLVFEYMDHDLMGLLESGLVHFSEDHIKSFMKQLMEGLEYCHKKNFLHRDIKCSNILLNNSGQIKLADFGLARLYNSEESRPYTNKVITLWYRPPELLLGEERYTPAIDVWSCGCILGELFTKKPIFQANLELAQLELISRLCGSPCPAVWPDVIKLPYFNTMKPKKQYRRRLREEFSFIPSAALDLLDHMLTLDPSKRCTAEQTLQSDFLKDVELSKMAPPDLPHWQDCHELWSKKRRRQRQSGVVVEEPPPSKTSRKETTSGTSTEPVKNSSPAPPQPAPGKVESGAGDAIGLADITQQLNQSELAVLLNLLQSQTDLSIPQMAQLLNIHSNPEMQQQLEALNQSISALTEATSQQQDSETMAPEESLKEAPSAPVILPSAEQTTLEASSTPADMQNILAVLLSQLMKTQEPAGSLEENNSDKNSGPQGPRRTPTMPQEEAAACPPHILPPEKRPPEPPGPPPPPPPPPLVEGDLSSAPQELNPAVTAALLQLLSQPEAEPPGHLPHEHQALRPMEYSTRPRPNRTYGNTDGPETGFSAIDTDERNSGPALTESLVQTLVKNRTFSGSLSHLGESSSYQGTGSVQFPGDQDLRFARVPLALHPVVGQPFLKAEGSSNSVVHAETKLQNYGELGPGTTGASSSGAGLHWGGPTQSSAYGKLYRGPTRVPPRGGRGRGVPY
CDK12 wt/CycK, sequence (O75909 whole entry partner): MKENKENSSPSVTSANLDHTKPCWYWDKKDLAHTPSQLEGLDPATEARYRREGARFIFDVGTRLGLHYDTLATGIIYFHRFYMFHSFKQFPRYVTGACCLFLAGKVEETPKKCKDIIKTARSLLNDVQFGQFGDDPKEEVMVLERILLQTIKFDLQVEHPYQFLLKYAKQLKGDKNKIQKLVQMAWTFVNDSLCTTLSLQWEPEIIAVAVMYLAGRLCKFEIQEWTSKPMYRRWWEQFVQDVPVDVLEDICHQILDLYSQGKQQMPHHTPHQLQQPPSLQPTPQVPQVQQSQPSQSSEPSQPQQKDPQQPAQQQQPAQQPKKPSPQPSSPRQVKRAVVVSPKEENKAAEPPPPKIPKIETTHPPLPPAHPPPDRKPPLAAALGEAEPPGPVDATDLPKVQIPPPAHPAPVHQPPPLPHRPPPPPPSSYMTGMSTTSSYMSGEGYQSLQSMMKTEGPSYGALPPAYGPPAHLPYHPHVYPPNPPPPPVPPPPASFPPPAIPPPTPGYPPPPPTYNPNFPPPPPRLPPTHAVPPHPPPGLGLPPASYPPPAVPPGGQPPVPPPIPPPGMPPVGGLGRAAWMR

`C=CC(=O)Nc1ccc(C(=O)N2CC[C@@H](Nc3ncc(Cl)cn3)C2)cc1OCCN(C)C` [Example 112, (R)—N-(4-(3-((5-chloropyrimidin-2-yl)amino)pyrrolidine-1-carbonyl)-2-(2-(dimethylamino)ethoxy)phenyl)acrylamide] showed a pIC50 of 6.00 to 7.00.

Same assay, conditions: thiol containing conditions (1.2 mM DTT), ATP 0.3 μM; read-out: CDK12 IC50 Condition A

`[2H]C([2H])([2H])Oc1nc(N[C@@H]2CCN(C(=O)c3ccc(NC(=O)/C=C/CN(C)C)cc3)C2)ncc1Cl` [Example 114, (R,E)-N-(4-(3-((5-chloro-4-(trideuteromethoxy)pyrimidin-2-yl)amino)pyrrolidine-1-carbonyl)phenyl)-4-(dimethylamino)but-2-enamide] and `COc1nc(N[C@@H]2CCN(C(=O)c3ccc(NC(=O)/C=C/CN(C)C)cc3)C2)ncc1Cl` [Example 115, (R,E)-N-(4-(3-((5-chloro-4-methoxypyrimidin-2-yl)amino)pyrrolidine-1-carbonyl)phenyl)-4-(dimethylamino)but-2-enamide] fall in the same range of pIC50: 6.00 to 7.00 for the first, 6.00 to 7.00 for the second.

`O=C(c1cccc(N2C(=O)C=CC2=O)c1)N1CC[C@@H](Nc2ncc(Cl)cn2)C1` [Example 116, (R)-1-(3-(3-((5-chloropyrimidin-2-yl)amino)pyrrolidine-1-carbonyl)phenyl)-1H-pyrrole-2,5-dionefuran-2,5-dione] and `O=C(c1ccc(N2C(=O)C=CC2=O)cc1)N1CC[C@@H](Nc2ncc(Cl)cn2)C1` [Example 140, (R)-1-(4-(3-((5-chloropyrimidin-2-yl)amino)pyrrolidine-1-carbonyl)phenyl)-1H-pyrrole-2,5-dione] fall in the same range of pIC50: 5.00 to 6.00 for the first, 5.00 to 6.00 for the second.

First: COc1nc(N[C@@H]2CCN(C(=O)c3ccc(NC(=O)/C=C/CN(C)C)c(C)c3)C2)ncc1Cl [Example 117, (R,E)-N-(4-(3-((5-chloro-4-methoxypyrimidin-2-yl)amino)pyrrolidine-1-carbonyl)-2-methylphenyl)-4-(dimethylamino)but-2-enamide]
Second: C#CC(=O)Nc1ccc(C(=O)N2CC[C@@H](Nc3ncc(Cl)c(OC)n3)C2)cc1 [Example 124, (R)—N-(4-(3-((5-chloro-4-methoxypyrimidin-2-yl)amino)pyrrolidine-1-carbonyl)phenyl)propiolamide]
The pIC50 of the first is lower: 6.00 to 7.00 for the first, greater than 7.00 for the second. The second is the more potent here.

First: C=CC(=O)Nc1ccc(C(=O)N2CC[C@@H](Nc3ncc(C(F)(F)F)c(N(C)C)n3)C2)cc1 [Example 118, (R)—N-(4-(3-((4-(dimethylamino)-5-(trifluoromethyl)pyrimidin-2-yl)amino)pyrrolidine-1-carbonyl)phenyl)acrylamide]
Second: C=CC(=O)Nc1ccc(C(=O)N2CC[C@@H](Nc3ncc(C(F)(F)F)c(NC)n3)C2)cc1 [Example 120, (R)—N-(4-(3-((4-(methylamino)-5-(trifluoromethyl)pyrimidin-2-yl)amino)pyrrolidine-1-carbonyl)phenyl)acrylamide]
The pIC50 of the first is lower: 4.52 to 5.00 for the first, greater than 7.00 for the second. The second is the more potent here.

`C=CC(=O)Nc1ccc(C(=O)N2CC[C@@H](Nc3ncc(Cl)c(OCC)n3)C2)cc1N1CCN(C)CC1` [Example 119, (R)—N-(4-(3-((5-chloro-4-ethoxypyrimidin-2-yl)amino)pyrrolidine-1-carbonyl)-2-(4-methylpiperazin-1-yl)phenyl)acrylamide] and `C=CC(=O)Nc1ccc(C(=O)N2CC[C@@H](Nc3ncc(Cl)c(OCCOCC)n3)C2)cc1N1CCN(C)CC1` [Example 123, (R)—N-(4-(3-((5-chloro-4-(2-ethoxyethoxy)pyrimidin-2-yl)amino)pyrrolidine-1-carbonyl)-2-(4-methylpiperazin-1-yl)phenyl)acrylamide] fall in the same range of pIC50: 6.00 to 7.00 for the first, 6.00 to 7.00 for the second.

Compared with `C#CC(=O)Nc1ccc(C(=O)N2CC[C@@H](Nc3ncc(Cl)cn3)C2)cc1` [Example 125, (R)—N-(4-(3-((5-chloropyrimidin-2-yl)amino)pyrrolidine-1-carbonyl)phenyl)propiolamide], `N#CCC(=O)Nc1ccc(C(=O)N2CC[C@@H](Nc3ncc(Cl)cn3)C2)cc1` [Example 133, (R)—N-(4-(3-((5-chloropyrimidin-2-yl)amino)pyrrolidine-1-carbonyl)phenyl)-2-cyanoacetamide] is lower in pIC50: greater than 7.00 for the first, 6.00 to 7.00 for the second. The first is the more potent here.

`C=CC(=O)Nc1ccc(C(=O)N2CC[C@@H](Nc3ncc(Cl)cn3)C2)cc1N1CCC(N(C)C)C1` (stereo partly drawn) [Example 127, N-(4-((R)-3-((5-chloropyrimidin-2-yl)amino)pyrrolidine-1-carbonyl)-2-(3-(dimethylamino)pyrrolidin-1-yl)phenyl)acrylamide] and `C=CC(=O)N1CCc2ccc(C(=O)N3CC[C@@H](Nc4ncc(Cl)cn4)C3)cc21` [Example 136, (R)-1-(6-(3-((5-chloropyrimidin-2-yl)amino)pyrrolidine-1-carbonyl)indolin-1-yl)prop-2-en-1-one] fall in the same range of pIC50: 6.00 to 7.00 for the first, 6.00 to 7.00 for the second.

First: [2H]C([2H])([2H])Oc1nc(N[C@@H]2CCN(C(=O)c3cccc(N4C(=O)C=CC4=O)c3)C2)ncc1Cl [Example 128, (R)-1-(3-(3-((5-chloro-4-(trideuteriomethoxy)pyrimidin-2-yl)amino)pyrrolidine-1-carbonyl)phenyl)-1H-pyrrole-2,5-dione]
Second: [2H]c1nc(N[C@@H]2CCN(C(=O)c3ccc(NC(=O)C=C)cc3)C2)nc(OC([2H])([2H])[2H])c1Cl [Example 138, (R)—N-(4-(3-((5-chloro-4-deutero-6-(trideuteromethoxy)pyrimidin-2-yl)amino)pyrrolidine-1-carbonyl)phenyl)acrylamide]
The pIC50 of the first is lower: 5.00 to 6.00 for the first, greater than 7.00 for the second.

First: C=CC(=O)N1CCc2ccc(C(=O)N3CC[C@@H](Nc4ncc(Cl)cn4)C3)cc2C1 [Example 130, (R)-1-(7-(3-((5-chloropyrimidin-2-yl)amino)pyrrolidine-1-carbonyl)-3,4-dihydroisoquinolin-2(1H)-yl)prop-2-en-1-one]
Second: C=CC(=O)N1CCc2cc(C(=O)N3CC[C@@H](Nc4ncc(Cl)cn4)C3)ccc2C1 [Example 132, (R)-1-(6-(3-((5-chloropyrimidin-2-yl)amino)pyrrolidine-1-carbonyl)-3,4-dihydroisoquinolin-2(1H)-yl)prop-2-en-1-one]
The pIC50 of the first is higher: 6.00 to 7.00 for the first, 5.00 to 6.00 for the second. The first is the more potent here.

Compared with `C/C=C/C(=O)Nc1ccc(C(=O)N2CC[C@@H](Nc3ncc(Cl)cn3)C2)cc1` [Example 131, (R,E)-N-(4-(3-((5-chloropyrimidin-2-yl)amino)pyrrolidine-1-carbonyl)phenyl)but-2-enamide], `O=C(Nc1ccc(C(=O)N2CC[C@@H](Nc3ncc(Cl)cn3)C2)cc1)C1CO1` (stereo partly drawn) [Example 141, N-(4-((R)-3-((5-chloropyrimidin-2-yl)amino)pyrrolidine-1-carbonyl)phenyl)oxirane-2-carboxamide] is lower in pIC50: 6.00 to 7.00 for the first, 5.00 to 6.00 for the second. The first is the more potent here.

Compared with `CN(C)/C=C(\C#N)C(=O)Nc1ccc(C(=O)N2CC[C@@H](Nc3ncc(Cl)cn3)C2)cc1` [Example 134, (R)—N-(4-(3-((5-chloropyrimidin-2-yl)amino)pyrrolidine-1-carbonyl)phenyl)-2-cyano-3-(dimethylamino)acrylamide], `CN(C)C=C(C#N)C(=O)Nc1cccc(C(=O)N2CC[C@@H](Nc3ncc(Cl)cn3)C2)c1` [Example 135, (R)—N-(3-(3-((5-chloropyrimidin-2-yl)amino)pyrrolidine-1-carbonyl)phenyl)-2-cyano-3-(dimethylamino)acrylamide] is lower in pIC50: 6.00 to 7.00 for the first, 5.00 to 6.00 for the second. The first is the more potent here.

First: C=CC(=O)Nc1ccc(C(=O)N2CC[C@@H](Nc3ncc(Cl)c(OCCO)n3)C2)cc1 [Example 137, (R)—N-(4-(3-((5-chloro-4-(2-hydroxyethoxy)pyrimidin-2-yl)amino)pyrrolidine-1-carbonyl)phenyl)acrylamide]
Second: COc1nc(N[C@@H]2CCN(C(=O)c3ccc(NC(=O)C4CO4)cc3)C2)ncc1Cl (stereo partly drawn) [Example 142, N-(4-((R)-3-((5-chloro-4-methoxypyrimidin-2-yl)amino)pyrrolidine-1-carbonyl)phenyl)oxirane-2-carboxamide]
The pIC50 of the first is higher: greater than 7.00 for the first, 5.00 to 6.00 for the second. The first is the more potent here.
